The results in this text go back to patent publication US4344939A, “Penicillin 1,1-dioxides, compositions thereof and methods of use” (Bayer Aktiengesellschaft, priority 1979, dated 1982).

Holding throughout (type): cell-based
For test [1], the system named is Klebsiella pneum. 1852. Nature of the test: MIC, Table 1, Klebsiella pneum. 1852. The text has this:
(§1) The penicillanic acid 1,1-dioxide derivatives according to the invention inactivate, by inhibition or destruction, the bacterial enzymes which split the β-lactam ring (β-lactamases). The degradation of other penicillins, for example of amoxicillin, mezlocillin, ampicillin, azlocillin, penicillin G, carbenicillin and ticarcillin, is thereby prevented, and on the one hand their activity is thereby retained and on the other hand their spectrum of action is extended to bacteria which produce β-lactamase.

Test [2] has as its system Staphylococcus aeureus 1756. Nature of the test: MIC, Table 1, Staphylococcus aureus 1756.
From the text: as §1

The test system of test [3] is Staphylococcus aureus 133. Put plainly: in vitro turbidity test in Muller-Hinton nutrient broth. The note with it: dosage of 1 μg/ml; 1×10^5 to 2×10^5 bacteria per ml; 0.1% glucose; incubated 24 hours. As to the method:
[…] In each case, the nutrient solution contained 1×10^5 to 2×10^5 bacteria per ml. The small tubes containing this batch were each incubated for 24 hours and the degree of turbidity was then determined. Absence from turbidity indicates action.

For test [4], the system named is E. coli T 7. Nature of the test: MIC, Table 1, E. coli T 7.
From the text: as §1

Turning to `CCOC(OCC)(OCC)C(=O)N[C@@H]1C(=O)N2[C@@H](C(=O)O)C(C)(C)S(=O)(=O)[C@H]12` [Example 1], the MIC in test [1] and in test [2] was > 256 E/ml each time. Moreover, in test [3], the “degree of turbidity (absence from turbidity indicates action)” value is on record as “free from turbidity”.
For `CC1(C)S[C@@H]2[C@H](NC(=O)[C@H](NC(=O)N3CCN(S(C)(=O)=O)C3=O)c3ccccc3)C(=O)N2[C@H]1C(=O)O` [mezlocillin], the MIC in test [4] is > 256 E/ml; in test [1], 128 E/ml; in test [2] it was 256 E/ml.
